Test results taken from patent US5977133A, “Pyridone antibiotic with improved safety profile” (priority 1998, dated 1999).
Where a name gives a salt, the structure may show the parent alone.

What was measured:
P. aeruginosa (CiproS) = assay: In vitro MIC, agar dilution; type: cell-based; settings: Pseudomonas aeruginosa
P. aeruginosa (CiproR) = assay: In vitro MIC, agar dilution; type: cell-based; settings: Pseudomonas aeruginosa, P. aeruginosa (CiproR), 20 isolates
E. faecalis (VanS) = assay: In vitro MIC, agar dilution; type: cell-based; settings: Enterococcus faecalis
[1] = tested on: Streptococcus pneumoniae 6303; assay: In vivo efficacy, mouse infection (ED50); settings: Streptococcus pneumoniae, 6303, in Mus musculus, 168 h
[2] = tested on: staphylococcus aureus NTCC 10649; assay: In vivo efficacy, mouse infection (ED50); settings: Staphylococcus aureus, NTCC10649, in Mus musculus, 168 h
in vivo = settings: mouse, ip
[3] = mouse, in vivo, ip, 100 mg/kg
B. fragilis = assay: In vitro MIC, agar dilution; type: cell-based; settings: Bacteroides fragilis
S. pneumoniae (PenS) = assay: In vitro MIC, agar dilution; type: cell-based; settings: Streptococcus pneumoniae
S. pneumoniae (PenR) = assay: In vitro MIC, agar dilution; type: cell-based; settings: Streptococcus pneumoniae
E. faecium (CiproR) = assay: In vitro MIC, agar dilution; type: cell-based; settings: Enterococcus faecium, read-out: MIC Range
Enterococcus spp. (VanR) = assay: In vitro MIC, agar dilution; type: cell-based
S. aureus (CiproR) = assay: In vitro MIC, agar dilution; type: cell-based; settings: Staphylococcus aureus
E. faecium (CiproS) = assay: In vitro MIC, agar dilution; type: cell-based; settings: Enterococcus faecium
S. aureus (CiproS) = assay: In vitro MIC, agar dilution; type: cell-based; settings: Staphylococcus aureus
E. coli = assay: In vitro MIC, agar dilution; type: cell-based; settings: Escherichia coli, 25 isolates
Description: Each plate was inoculated with 1:100 (or 1:10 for slow-growing strains, primarily Micrococcus and Streptococcus) dilutions of up to 32 different microorganisms, using a Steers replicator block calibrated to deliver approximately 10^4 colony forming units (CFU's). The inoculated plates were incubated at from about 35° C. to about 37 ° C. for approximately 20-24 hours. In addition, a control plate using BHI agar containing no test compound was prepared and incubated at the beginning and at the end of each test. The quinolone antibacterial ciprofloxacin was used as a control ("Cntl").
The numbers below the microorganism species indicate the nunbers of isolates tested. […] The MIC is defined as the lowest concentration of test compound yielding no growth (a slight haze or sparsely isolated colonies at the inoculum spot) as compared to the growth control containing no test compound.

Escherichia coli JUHL = assay: In vivo efficacy, mouse infection (ED50); settings: Escherichia coli, in Mus musculus, 168 h

Cc1c(N2CC[C@H](N)C2)c(F)cn2c(=O)c(C(=O)O)cc(C3CC3)c12 [Example 2, 1-cyclopropyl-8-(3(S)-3-amino-1-pyrrolidinyl)-7-fluoro-9-methvl-4-oxo-4H-quinolizine-3-carboxylic acid hydrochloride]
MIC90 (P. aeruginosa (CiproS)): 0.25 µg/mL | MIC50 (P. aeruginosa (CiproS); P. aeruginosa (CiproS), 24 isolates, read-out: MIC50): 0.06 µg/mL | MIC (P. aeruginosa (CiproS); P. aeruginosa (CiproS), 24 isolates, read-out: MIC Range): 0.015 to 0.5 µg/mL | MIC50 (P. aeruginosa (CiproR); read-out: MIC50): 2 µg/mL | MIC90 (P. aeruginosa (CiproR); read-out: MIC90): 2 µg/mL | MIC (P. aeruginosa (CiproR); read-out: MIC Range): 1 to 4 µg/mL | MIC90 (E. faecalis (VanS)): 0.12 µg/mL | MIC50 (E. faecalis (VanS); E. faecalis (VanS), 17 isolates, read-out: MIC50): 0.06 µg/mL | MIC (E. faecalis (VanS); E. faecalis (VanS), 17 isolates, read-out: MIC Range): 0.03 to 0.12 µg/mL | ED50 ([1]; po): 5.3 mg/kg | ED50 ([1]; sc): 1.6 mg/kg | ED50 ([2]; po): 3.4 mg/kg | ED50 ([2]; sc): 0.6 mg/kg | LD50 at 504 h (in vivo): 38.8 mg/kg | body weight loss [3]: 38% | MIC90 (B. fragilis): 0.5 µg/mL | MIC (B. fragilis; read-out: MIC Range): 0.06 to 0.5 µg/mL | MIC50 (B. fragilis; B. fragilis, 18 isolates, read-out: MIC50): 0.12 µg/mL | MIC50 (S. pneumoniae (PenS)): 0.03 µg/mL | MIC90 (S. pneumoniae (PenS)): 0.03 µg/mL | MIC (S. pneumoniae (PenS); S. pneumoniae (PenS), 20 isolates, read-out: MIC Range): 0.015 to 0.03 µg/mL | MIC50 (S. pneumoniae (PenR)): 0.03 µg/mL | MIC90 (S. pneumoniae (PenR)): 0.03 µg/mL | MIC (S. pneumoniae (PenR); S. pneumoniae (PenR), 25 isolates, read-out: MIC Range): 0.03 µg/mL | MIC (E. faecium (CiproR)): 0.5 to 2 µg/mL | MIC90 (Enterococcus spp. (VanR); Enterococcus): 0.25 µg/mL | MIC50 (Enterococcus spp. (VanR); Enterococcus spp. (VanR), 21 isolates, read-out: MIC50): 0.25 µg/mL | MIC (Enterococcus spp. (VanR); Enterococcus spp. (VanR), 21 isolates, read-out: MIC Range): 0.12 to 2 µg/mL | MIC90 (S. aureus (CiproR)): 0.25 µg/mL | MIC50 (S. aureus (CiproR); S. aureus (CiproR), 25 isolates, read-out: MIC50): 0.25 µg/mL | MIC (S. aureus (CiproR); S. aureus (CiproR), 25 isolates, read-out: MIC Range): 0.03 to 1 µg/mL | MIC90 (E. faecium (CiproS)): 0.25 µg/mL | MIC (E. faecium (CiproS); read-out: MIC Range): 0.25 to 0.5 µg/mL | MIC50 (E. faecium (CiproS); E. faecium (CiproS), 16 isolates, read-out: MIC50): 0.25 µg/mL | MIC90 (S. aureus (CiproS)): 0.015 µg/mL | MIC50 (S. aureus (CiproS); S. aureus (CiproS), 21 isolates, read-out: MIC50): 0.008 µg/mL | MIC (S. aureus (CiproS); S. aureus (CiproS), 21 isolates, read-out: MIC Range): 0.008 to 0.015 µg/mL | MIC (E. coli): 0.004 to 0.015 µg/mL | MIC50 (E. coli; read-out: MIC50): 0.004 µg/mL | MIC90 (E. coli; read-out: MIC90): 0.008 µg/mL | ED50 (Escherichia coli JUHL; po): 0.6 mg/kg | ED50 (Escherichia coli JUHL; sc): 0.1 mg/kg
